Patent US11382889B2, “NRF2 activators for the prevention and/or treatment of axonal degeneration” (priority 2018, dated 2022)

Tested on: X-ALD fibroblasts
Experiment: NRF2 response (HMOX1, NQO1, GCLC expression) in X-ALD patient fibroblasts incubated with excess VLCFA
Type: cell-based, human
Details: normalized to RPLP0, fold change to vehicle
Procedure: This means that the NRF-2 target genes HMOX1, NQO1 and GCLC increase their expression when incubated with excess VLCFA. See FIG. 4 (n=8 per genotype and condition). Gene expression normalized relative to RPLP0. Quantification depicted as fold change to vehicle-treated (Veh) fibroblasts.

Structure (SMILES) | NRF2 response: expression of NRF-2 target genes HMOX1, NQO1 and GCLC
Cc1c[nH]c(-c2cnc(NCCNc3ccc(C#N)cn3)nc2-c2ccc(Cl)cc2Cl)n1 [CT99021] | restore a normal NRF2 response
Cn1cc(C2=C(c3ccc(Cl)cc3Cl)C(=O)NC2=O)c2ccccc21 [SB216763] | restore a normal NRF2 response
